Values quoted from earlier work, collected in patent US20070141149A1, “Controlled-release pharmaceutical formulation” (priority 2003, published 2007).
Where two headings read alike, the source gives them in different places.

Details: orally administered

bioavailability (on an empty stomach): ~100% | bioavailability (taken during meals): decreased | cmax (taken during meals): decreased
SMILES: CCOc1ccccc1OCCN[C@H](C)Cc1ccc(OC)c(S(N)(=O)=O)c1 [tamsulosin]
